According to PubChem BioAssay (NCI):
Values joined by “and” are separate entries in the source; they are usually repeats but may differ in a detail not shown here. Equal entries are not always repeated.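 Briefly, cells in 96-well plates were exposed to five compound concentrations for 48 h, and endpoints were estimated by linear interpolation. Abbreviation: GI50, concentration required for 50% inhibition of growth. The concentration for full growth arrest is given as TGI.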

How the values were obtained:
Assay in all cases: NCI tumour cell line growth inhibition, 48 h
TK-10 renal = tested on: TK-10 renal
A498 renal = tested on: A498 renal
SK-MEL-5 melanoma = tested on: SK-MEL-5 melanoma
IGROV1 ovarian = tested on: IGROV1 ovarian
SK-MEL-2 melanoma = tested on: SK-MEL-2 melanoma
786-0 renal = tested on: 786-0 renal
LOX IMVI melanoma = tested on: LOX IMVI melanoma
HT29 colon = tested on: HT29 colon
M14 melanoma = tested on: M14 melanoma
DU-145 prostate = tested on: DU-145 prostate

SMILES | TGI (TK-10 renal) | TGI (A498 renal) | TGI (SK-MEL-5 melanoma) | TGI (IGROV1 ovarian) | TGI (SK-MEL-2 melanoma) | TGI (786-0 renal) | TGI (LOX IMVI melanoma) | TGI (HT29 colon) | TGI (M14 melanoma) | GI50 (TK-10 renal) | GI50 (A498 renal) | GI50 (SK-MEL-5 melanoma) | GI50 (IGROV1 ovarian) | GI50 (SK-MEL-2 melanoma) | GI50 (786-0 renal) | GI50 (LOX IMVI melanoma) | GI50 (HT29 colon) | GI50 (M14 melanoma) | TGI (DU-145 prostate) | GI50 (DU-145 prostate)
O=C(NC1CCCCC1)c1c(O)[nH]c(=S)[nH]c1=O | > 100 µM | > 100 µM | > 100 µM | > 100 µM | > 100 µM | > 100 µM | > 100 µM | > 100 µM | > 100 µM | – | – | – | – | – | – | – | – | – | – | –
CC(=O)[CH-]C(=O)c1ccccc1.CC(=O)[CH-]C(=O)c1ccccc1.[Nd+3].[OH-].[OH3+] | > 100 µM | > 100 µM | > 100 µM | > 100 µM | > 100 µM | > 100 µM | > 100 µM | > 100 µM | > 100 µM | > 100 µM | > 100 µM | > 100 µM | > 100 µM | > 100 µM | > 100 µM | > 100 µM | > 100 µM | > 100 µM | – | –
CN(C)c1c(Cl)c(=O)oc2c1ccc1nc(-c3ccccc3)sc12 | > 100 µM | > 100 µM | > 100 µM | > 100 µM | – | > 100 µM | > 100 µM | > 100 µM | > 100 µM | – | – | – | – | – | – | – | – | – | > 100 µM | –
O=c1/c(=C/c2cccc3ccccc23)sc2nc3ccccc3n12 | > 100 µM | > 100 µM | > 100 µM | > 100 µM | > 100 µM | > 100 µM | > 100 µM | > 100 µM | > 100 µM | – | – | – | – | – | – | – | – | – | – | –
COc1ccc(CC(=O)c2cc(OC)c(OC)cc2C)cc1OC | > 100 µM | > 100 µM | > 100 µM | > 100 µM | > 100 µM | > 100 µM | – | > 100 µM | > 100 µM | – | – | – | – | – | – | – | – | – | – | –
CCOC(=O)C1NCCc2c1[nH]c1ccccc21 (stereo unspecified) | > 10 µM | – | > 10 µM | > 10 µM | – | > 10 µM | – | > 10 µM | > 10 µM | – | – | – | – | – | – | – | – | – | > 10 µM | –
Nc1nc2ncn(CCO)c2c(=O)[nH]1 | > 100 µM | – | – | – | > 100 µM | > 100 µM | > 100 µM | > 100 µM | – | – | – | – | – | – | – | – | – | – | – | –
CC1=CC[C@@H]2[C@@H](CC[C@@]2(C)O)C(C)(C)[C@H]1CC[C@@H]1[C@@]2(C)CCC(=O)C(C)(C)O[C@@H]2CC[C@]1(C)O | > 100 µM | 73 µM | 39.1 µM | 76.5 µM | > 100 µM | 59.6 µM | 33.3 µM | – | 59.3 µM | – | – | – | – | – | – | – | – | – | > 100 µM | –
CC(=O)O[C@]1(C(C)=O)CC[C@H]2[C@@H]3C[C@H](C)C4=CC(=O)C=C[C@]4(C)[C@@]3(F)[C@@H](O)C[C@@]21C | > 100 µM | – | > 100 µM | > 100 µM | – | > 100 µM | > 100 µM | > 100 µM | > 100 µM | – | – | – | – | – | – | – | – | – | – | –
CCCCN(CC)C(=O)C(=O)C1C(=O)Nc2ccccc2S1=O (stereo unspecified) | > 100 µM | > 100 µM | > 100 µM | > 100 µM | > 100 µM | > 100 µM | > 100 µM | > 100 µM | > 100 µM | – | – | – | – | – | – | – | – | – | – | –
OCCN1CCN(CCCN2c3ccccc3Sc3ccc(C(F)(F)F)cc32)CC1 | 4.28 µM and 21.3 µM and 20.1 µM | 10.3 µM and 23.4 µM and 28.1 µM | 1.43 µM and 11 µM and 4.8 µM | 9.32 µM and 28.5 µM and 30.1 µM | – | 9.95 µM and 25.9 µM and 20.4 µM | 2 µM and 18.2 µM and 12.7 µM | 1.78 µM and 13.9 µM and 11 µM | 1.73 µM and 6.13 µM | 1.48 µM and 8.22 µM and 6.59 µM | 2.28 µM and 9.65 µM and 10.4 µM | 0.764 µM and 3.02 µM and 1.98 µM | 2.57 µM and 11.3 µM and 10.2 µM | – | 3.01 µM and 9.35 µM and 3.81 µM | 0.898 µM and 5.18 µM and 3.4 µM | 0.897 µM and 4.12 µM and 3.23 µM | 0.899 µM and 2.34 µM | 12.7 µM and 25.7 µM | 6.29 µM and 12.9 µM
CS(=O)(=O)C1S(=O)(=O)OCCOS1(=O)=O | > 100 µM | > 100 µM | > 100 µM | > 100 µM | – | > 100 µM | > 100 µM | > 100 µM | > 100 µM | – | – | – | – | – | – | – | – | – | – | –
COc1ccc(CNc2cc(OC)cc(OC)c2)cc1 | > 100 µM | > 100 µM | > 100 µM | > 100 µM | > 100 µM | > 96.2 µM | > 100 µM | > 100 µM | > 100 µM | – | > 100 µM and 14.7 µM | – | – | – | – | – | > 73.8 µM and 35 µM | – | – | –
OCC(O)CC[CH2][Sn]([c]1ccccc1)([c]1ccccc1)[c]1ccccc1 (stereo unspecified) | 31.2 µM | – | 29.1 µM | 33.7 µM | 29 µM | 28.2 µM | 30.7 µM | 33.4 µM | 31 µM | 17 µM | – | 15.3 µM | 16.3 µM | 15.3 µM | 14.8 µM | 14.9 µM | 19 µM | 14.2 µM | – | –
CC1OCC2OC(C)OC(C3C4=C(CC(C)(C)CC4=O)OC4=C3C(=O)CC(C)(C)C4)C2O1 (stereo unspecified) | > 100 µM | > 100 µM | > 100 µM | – | > 100 µM | > 100 µM | > 100 µM | > 100 µM | > 100 µM | – | – | – | – | – | – | – | – | – | > 100 µM | –
N#C/C(=C\c1ccc(CP(=O)(O)O)cc1)C(N)=O | > 100 µM | > 100 µM | > 100 µM | > 100 µM | > 100 µM | > 100 µM | > 100 µM | > 100 µM | > 100 µM | – | – | – | – | – | – | – | – | – | – | –
Cc1oc2ccccc2c(=O)c1Cn1nnc2ccccc21 | > 100 µM | > 100 µM | 48.5 µM | – | > 100 µM | > 100 µM | > 100 µM | > 100 µM | > 100 µM | – | – | – | – | – | – | – | – | – | > 100 µM | –
O=C(O)CSc1n[nH]c(/C=C/c2ccccc2)n1 | > 100 µM | > 100 µM | > 100 µM | > 100 µM | > 100 µM | > 100 µM | > 100 µM | > 100 µM | > 100 µM | – | – | – | – | – | – | – | – | – | – | –
COc1cc2c(-c3nc4cc(Cl)c(F)cc4s3)cc(=O)oc2c(C)c1OC | 3.47 µM | 2.87 µM | 2.56 µM | 0.662 µM | 3.9 µM | 2.21 µM | – | – | – | 1.96 µM | 1.5 µM | 1.23 µM | 0.207 µM | 2.07 µM | 1.02 µM | – | – | – | 3.05 µM | 1.62 µM
Cc1c(/C=C2\CC/C(=C\c3[nH]c(C(=O)OC(C)(C)C)c(C)c3C)C2=O)[nH]c(C(=O)OC(C)(C)C)c1C | > 100 µM | > 100 µM | > 100 µM | > 100 µM | > 100 µM | > 100 µM | > 100 µM | > 100 µM | > 100 µM | – | – | – | – | – | – | – | – | – | – | –
COc1cc2c(cc1OC)C13CCN4CC5=CCOC(CC(=O)O)C(C5CC41)C3N2 (stereo unspecified) | > 100 µM | > 100 µM | > 100 µM | > 100 µM | > 100 µM | > 100 µM | > 100 µM | > 100 µM | > 100 µM | – | – | – | – | – | – | – | – | – | – | –
